Data on five molecules can be found in publication PMC5570892, “Indole-based perenosins as highly potent HCl transporters and potential anti-cancer agents” (Scientific Reports, 2017).

Like-named read-outs stand apart in the source and are kept apart here.

For one test, the system named is MDA-MB-231 cells. As to the kind of experiment: MTT cell viability assay. The conditions noted are these: Homo sapiens, error from three repeats in brackets. Format: cell-based. As to the method: Herein, we carried out further in vitro studies at the University of Barcelona for the full library of perenosins. Single dose screening for cell viability using the methylthiazoletetrazolium (MTT) colorimetric assay over five different cell lines (cancer cells MCF-7, MDA-MB-231, A549 and SW620, and non-cancerous human cells MCF-10A) was conducted.
While perenosin 5, with pentyl substituent at R3, has similar cell viability effects as 1d, bis-indole perenosin 7 with pentyl substituent at R1 has a moderate degree of late onset by a factor of 7.
S11.1 Cell Lines and Culture Conditions
The human cell lines were obtained from the American Type Culture Collection (ATCC, Manassas VA). Breast adenocarcinoma MDA-MB-231 and MCF-7 cells were maintained in DMEM:F12 media (1:1; Biological Industries, Beit Haemek, Israel), and 10 µg/ml insulin and 50 µM sodium pyruvate from Sigma-Aldrich Chemical Co. (St. Louis, MO) were added to MCF-7 cells. Lung adenocarcinoma A549 and colorectal adenocarcinoma SW620 cells were cultured in DMEM media. All were supplemented with 10% foetal bovine serum (FBS; Invitrogen-Life Technologies, Carlsbad, CA) and 100 U/mL penicillin, 100 µg/mL streptomycin and 2 mM L-glutamine, all from Biological Industries.
Mammary epithelial MCF-10A cells were maintained in DMEM:F12 media supplemented with 5% horse serum (Life Technologies), 20 ng/ml EGF, 0.5 µg/ml Hydrocortisone, 100 ng/ml Cholera toxin, 10 µg/ml insulin all from Sigma-Aldrich and 100 U/ml penicillin, 100 µg/ml streptomycin, and 2 mM L- glutamine (Biological Industries). Cells were grown at 37 °C under a 5% CO2 atmosphere.
S11.2 Cell Viability Assays
Cell viability was evaluated using the methylthiazoletetrazolium (MTT) colorimetric assay. Cancer cells (MCF-7, MDA-MB-231, A549 and SW620) or non-cancerous human cells MCF-10A cells were harvested (10^4 cells/well) in 96-well plates in a final volume of 100 µl and allowed to grow overnight.
After 24 h, vehicle solution (DMSO) or experimental compounds were added at 10 µM (single point experiment) or at different ranging concentrations (0.8-100 µM) to the assay plate and were incubated for 24 or 72 h. Then, 10 µl of MTT (5 mg/ml; Sigma-Aldrich) were added and the plates were incubated for 4 h at 37°C. 100 µl of DMSO (Sigma-Aldrich) were added to dissolve crystals and the reading was taken spectrophotometrically at 570 nm using a multi-well plate reader (Multiskan FC, Thermo Scientific, Waltham, MA, USA). Cell viability and inhibitory concentration (IC) values were obtained using GraphPad Prism v5.0 (Graphpad Software, San Diego, CA, USA). All data are shown as the mean value ± standard deviation (S.D.) of three independent experiments.
On the technique in general: Tetrazolium dyes change colour on reduction, which living cells bring about.

Test [1] in a line: HPTS assay with TBAOH (electrogenic H+ or OH- transport). Format: biochemical. The conditions noted are these: sodium gluconate vesicles, pH 7.0; CCCP at 0.1 mol%; perenosins at loading giving 100% in NMDG-Cl assay. As to the method: S10.8. General Procedure for the HPTS Assay
Unilamellar vesicles were prepared using previously reported literature procedures16. A lipid film of POPC (1-palmitoyl-2-oleoyl-sn-glycero-3-phosphocholine) was prepared from a chloroform solution under reduced pressure and then dried under vacuum for 4 or more hours. The lipid film was rehydrated by vortexing with an internal solution containing HPTS (1 mM). The lipid suspension was then subjected to 9 freeze-thaw cycles and left to rest at room temperature for 30 minutes. After this, the suspension was extruded 25 times through a 200 nm polycarbonate membrane resulting in unilamellar vesicles of a mean diameter of 200 nm. The un-encapsulated HPTS was removed by size exclusion chromatography using a sephadex G-25 column and an external solution eluent that does not contain HPTS. […]
After 200 s, detergent (50 μL of Triton X-100 (11 w%) in H2O:DMSO (7:1 v/v)) was added to lyse the vesicles and after 5 mins a final reading was taken. […]
The fractional fluorescence intensity (If) was calculated using: […]
where Rt is the fluorescence ratio at time t, R0 is the fluorescence ratio at time 0 and Rd is the fluorescence ratio at the end of the experiment, after the addition of detergent. […]

Setting [2] is: MDA-MB-231, 24 h exposure, read-out: IC50 (24 h).
The mark [3] stands for this setting: MDA-MB-231, 72 h exposure, read-out: IC50 (72 h).

The IC50 is the concentration at which inhibition is half-maximal. Turning to `Cc1cc(/N=C/c2[nH]c(C)cc2C)c2[nH]ccc2c1` [Perenosin 1c], the figures for the concentration for half-maximal inhibition (IC50) with MDA-MB-231 cells (setting [2]) and in the test with MDA-MB-231 cells (setting [3]) were 34.4 µM and 20.4 µM, respectively.

In the case of `Cc1cc(C)c(/C=N/c2cc(C(F)(F)F)cc3cc[nH]c23)[nH]1` [Perenosin 1b], the IC50 in the test on MDA-MB-231 cells (setting [2]) stood at 32.2 µM; in the test on MDA-MB-231 cells (setting [3]), 22.1 µM.

`COc1cc(/N=C/c2[nH]c(C)cc2C)c2[nH]ccc2c1` [Perenosin 1e]: the results for the IC50 in the test with MDA-MB-231 cells (setting [2]) and in the test on MDA-MB-231 cells (setting [3]) were 38.4 µM and 32.7 µM, respectively.

On to `N#CC(C#N)=NNc1cccc(Cl)c1` [CCCP], for which, in test [1], the “H+ or OH- transport (TBAOH base pulse)” value amounted to 100%.

`Cc1cc(C)c(/C=N/c2cccc3cc[nH]c23)[nH]1` [Perenosin 1a]: the IC50 in the test on MDA-MB-231 cells (setting [2]) came out at 38.3 µM; in the test with MDA-MB-231 cells (setting [3]), 24.4 µM.
